# Measured values reported in patent US12391696B2, “Pyrrolopyrazole derivatives, preparation method thereof and application thereof in medicine” (SHANGHAI MEDICILON INC., priority 2019, dated 2025).
# Biological target: H+/K+ ATPase (Oryctolagus cuniculus (Rabbit), UniProt P27112)
# Assay: Determination of compounds' inhibition of H+/K+ ATPase enzyme activity
# Type: biochemical
# Conditions: H+/K+ ATPase extracted from rabbit stomach; malachite green detection, 500 μM ATP, pH 6.5
# Text: Determination of Compounds' Inhibition of H^+/K^+ ATPase Enzyme Activity
# The following experiment is used to determine the inhibitory effect of the compound of the present invention on the H+/K+ATPase enzyme activity.
# • Plate reader: SpectraMax M5(MD) • Malachite Green (Sigma Aldrich, 213020-25G) • Ammonium molybdate (Sigma Aldrich, 277908-20G) • ATP (Sigma Aldrich, A1852-1VL). 2. Buffer Preparation
# Enzyme working solution: titrating the enzyme, diluting the enzyme with buffer 1, and during the reaction, taking 5 μl of the diluted solution into 50 μl reaction system.
# ATP solution: 100 mM ATP was diluted to 5 mM with no K+buffer, and 5 μl of the diluted solution was added to the 50 μl reaction system, that is, the final concentration of ATP was 500 μM.
# MLG color development liquid: 0.12% MLG, 7.5% ammonium molybdate, 11% Tween-20 was mixed as 100:25:2, and adding 15 μl of the mixture into each well during detection.
# Buffer 1: 50 mM Tris-HCl pH 6.5, 5 mM magnesium chloride (magnesium chloride), 10 μM valinomycin (valinomycin).
# Buffer 2: 50 mM Tris-HCl pH 6.5, 5 mM magnesium chloride (magnesium chloride), 10 μM valinomycin (valinomycin), 20 mM KCl.
# Homogenization buffer: 10 mmol/L Tris-HCl, pH 6.8, 0.25M sucrose (sucrose), 1 mmol/LEDTA
# 7.5% Ficoll layering solution: homogenization buffer+7.5% (W/W) (Ficoll 400).
# 3.1. H^+/K^+ ATPase Enzyme Extraction
# (1) The stomach tissue of the rabbit was separated, and the blood was washed with tap water, food residue.
# (2) The fundus portion was thoroughly washed with pre-cooled NaCl solution to remove surface mucus.
# (3) The stripped mucosa was filled into a sample bag or a 50 ml centrifuge tube, and quickly freezing in a liquid nitrogen tank.
# (4) The tissue was removed, minced with surgical scissors, and a pre-cooled homogenization buffer (4 ml/g tissue) was added and homogenized in a tissue homogenizer for 2 to 10 minutes.
# (5) After homogenization, if there were larger tissue particles, they could be removed by centrifugation (600 g, 10 min), and then the supernatant was transferred to a clean centrifuge tube. After centrifugation at 20000 g for 30 minutes, then the supernatant was transferred to a clean centrifuge tube at 100000 g for 90 minutes and the precipitate was collected.
# (6) Resuspending the precipitate with homogenization buffer, blowing uniformly, adding 7.5% Ficoll layering solution at equal ratio, centrifuging at 100000 g for 90 minutes, and collecting the precipitate.
# (7) Resuspending the precipitate with homogenization buffer, blowing uniformly, and the protein concentration was measured by Bradford. Freezing in tubes at −80° C. for later use.
# 3.2. H^+/K^+ ATPase Activity Experiment
# (1) Adding 35 μl of reaction buffer to each experimental well, and then added 35 μl of buffer 1.
# (2) Adding 5 μl buffer 1 containing 10% DMSO to the whole enzyme and buffer well.
# (3) Adding 5 μl of 10× compound working solution to the compound well and mixing well.
# (4) Adding 5 μl of buffer 1 to the buffer well.
# (5) Adding 5 μl of 10× enzyme working solution to the remaining wells, mixing and incubating at 37° C. for 30 minutes
# (6) Adding 5 μl of 10× ATP working solution to all experimental wells, and incubating at 37° C. for 20 min.
# (7) Adding 15 μl MLG chromogenic solution to all experimental wells, and uniformly mixing and incubating at room temperature for 5-30 min.
# (8) The reading number of 620 nm was detected by an M5 instrument. […]
# Sequence of H+/K+ ATPase (P27112 whole entry): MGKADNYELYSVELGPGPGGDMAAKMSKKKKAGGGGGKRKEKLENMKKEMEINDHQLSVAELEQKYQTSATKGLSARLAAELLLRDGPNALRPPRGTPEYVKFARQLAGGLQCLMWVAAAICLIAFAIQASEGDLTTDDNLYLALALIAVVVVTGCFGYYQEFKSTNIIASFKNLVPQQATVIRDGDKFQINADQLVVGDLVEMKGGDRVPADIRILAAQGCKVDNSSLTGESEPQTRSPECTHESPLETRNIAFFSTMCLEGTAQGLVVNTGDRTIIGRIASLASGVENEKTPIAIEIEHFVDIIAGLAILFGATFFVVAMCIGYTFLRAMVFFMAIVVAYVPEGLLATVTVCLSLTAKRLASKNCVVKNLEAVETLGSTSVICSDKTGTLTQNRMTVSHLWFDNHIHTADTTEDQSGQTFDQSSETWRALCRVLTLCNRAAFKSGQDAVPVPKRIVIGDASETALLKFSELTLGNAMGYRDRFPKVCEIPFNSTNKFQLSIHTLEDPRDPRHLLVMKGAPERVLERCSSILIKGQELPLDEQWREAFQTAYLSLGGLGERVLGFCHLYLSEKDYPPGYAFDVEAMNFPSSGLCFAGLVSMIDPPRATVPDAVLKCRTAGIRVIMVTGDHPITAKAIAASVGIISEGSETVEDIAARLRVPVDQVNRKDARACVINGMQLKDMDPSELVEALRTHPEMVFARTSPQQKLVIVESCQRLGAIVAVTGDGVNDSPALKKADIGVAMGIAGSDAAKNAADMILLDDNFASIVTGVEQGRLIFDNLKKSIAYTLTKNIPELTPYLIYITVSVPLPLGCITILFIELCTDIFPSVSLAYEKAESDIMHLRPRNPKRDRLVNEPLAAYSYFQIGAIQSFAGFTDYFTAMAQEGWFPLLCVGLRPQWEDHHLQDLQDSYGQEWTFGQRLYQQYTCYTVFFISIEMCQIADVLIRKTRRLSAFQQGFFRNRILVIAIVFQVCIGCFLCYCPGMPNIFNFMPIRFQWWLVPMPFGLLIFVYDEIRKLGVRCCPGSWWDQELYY
# Sequence of H+/K+ ATPase (P18597 whole entry partner): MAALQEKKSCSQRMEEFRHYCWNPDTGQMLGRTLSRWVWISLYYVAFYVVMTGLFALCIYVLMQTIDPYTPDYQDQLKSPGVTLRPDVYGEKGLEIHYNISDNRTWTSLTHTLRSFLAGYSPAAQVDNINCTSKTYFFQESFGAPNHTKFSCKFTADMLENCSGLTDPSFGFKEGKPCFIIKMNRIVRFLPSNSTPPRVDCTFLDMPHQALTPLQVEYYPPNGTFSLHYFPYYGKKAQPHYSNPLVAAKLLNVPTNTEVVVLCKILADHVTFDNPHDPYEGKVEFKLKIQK
row,SMILES,IC50
1,"CN1Cc2nn(Cc3cccc(N4CCOCC4)c3)c(-c3ccccc3F)c2C1 [Example 1, 4-(3-((3-(2-fluorophenyl)-5-methyl-5,6-dihydropyrrolo [3,4-c]pyrazole-2(4H)-yl)methyl)phenyl) morpholine]",410 nM
2,"CN1Cc2nn(Cc3cccc(N4CCCC4)c3)c(-c3ccccc3F)c2C1 [Example 3, 3-(2-fluorophenyl)-5-methyl-2-(3-(pyrrolidin-1-yl)benzyl)-2,4,5,6-tetrahydropyrrolo[3,4-c]pyrazole]",1860 nM
3,"CN1CCN(c2cccc(Cn3nc4c(c3-c3ccccc3F)CN(C)C4)c2)CC1 [Example 4, 3-(2-fluorophenyl)-5-methyl-2-(3-(4-methylpiperazin-1-yl)benzyl)-2,4,5,6-tetrahydro pyrrolo [3,4-c] pyrazole]",580 nM

# Further compounds by falling IC50, results first:
row,IC50,SMILES
1,2580 nM,"CN1Cc2nn(Cc3cccc(N4CCC(N5CCCCC5)CC4)c3)c(-c3ccccc3F)c2C1 [Example 5, 2-(3-([1,4′-Bipiperidine]-1′-yl)benzyl)-3-(2-fluorophenyl)-5-methyl-2,4,5,6-tetrahydropyrrolo[3,4-c]pyrazole]"
2,431 nM,"CN1Cc2nn(Cc3cccc(N4CCCCC4)c3)c(-c3ccccc3F)c2C1 [Example 2, 3-(2-fluorophenyl)-5-methyl-2-(3-(piperidin-1-yl)benzyl)-2,4,5,6-tetrahydropyrrolo[3,4-c]pyrazole]"
